Structures can show the parent of a compound that is named as a salt. Where two headings read alike, the source gives them in different places.
Assays:
[1] = molecular target: T1, human AOC3 enzyme (recombinant CHO cells) (Homo sapiens, UniProt Q16853); test: AOC3 biochemical assay (MAO-Glo), human enzyme
T1 construct: expressed in transfected cells; host or cells: CHO cells
T1 sequence (Q16853 1-763): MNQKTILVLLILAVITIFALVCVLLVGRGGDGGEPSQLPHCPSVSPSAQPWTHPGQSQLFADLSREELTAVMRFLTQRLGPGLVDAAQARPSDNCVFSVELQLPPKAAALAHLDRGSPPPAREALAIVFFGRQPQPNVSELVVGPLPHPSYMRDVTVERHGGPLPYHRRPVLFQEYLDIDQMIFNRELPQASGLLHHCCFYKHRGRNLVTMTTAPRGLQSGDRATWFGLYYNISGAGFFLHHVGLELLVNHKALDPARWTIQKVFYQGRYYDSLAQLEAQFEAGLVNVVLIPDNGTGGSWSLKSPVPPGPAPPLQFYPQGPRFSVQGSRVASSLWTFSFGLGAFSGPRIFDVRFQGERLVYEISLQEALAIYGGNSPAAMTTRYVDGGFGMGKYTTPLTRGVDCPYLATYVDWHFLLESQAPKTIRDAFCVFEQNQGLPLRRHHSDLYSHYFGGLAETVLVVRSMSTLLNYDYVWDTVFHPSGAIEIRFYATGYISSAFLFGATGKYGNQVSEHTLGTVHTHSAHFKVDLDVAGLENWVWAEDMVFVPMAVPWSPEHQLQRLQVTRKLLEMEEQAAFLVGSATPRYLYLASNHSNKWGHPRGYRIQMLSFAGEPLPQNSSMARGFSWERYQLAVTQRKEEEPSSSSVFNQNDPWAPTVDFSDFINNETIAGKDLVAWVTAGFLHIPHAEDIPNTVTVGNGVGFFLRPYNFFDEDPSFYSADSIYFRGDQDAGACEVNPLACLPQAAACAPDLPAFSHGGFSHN
Text: The MAO-Glo™ Assay (commercially available from PROMEGA, #V1402) provides a sensitive method for the measurement of monoamine oxidase (MAO) activity (Valley, M. P. et al., 2006, Anal. Biochem. 359: 238-246) from a variety of tissues, biofluids or recombinant expressed or purified enzymes. As substrate a derivate of the beetle luciferin ((4S)-4,5-dihydro-2-(6-hydroxybenzothiazolyl)-4-thiazole-carboxylic acid) is used, which is oxidized at a primary amine moiety. After a spontaneous elimination and a catalyzed esterase reaction, the turnover of luciferin by the luciferase is recorded as a signal of AOC3 activity.
An aliquot of 3 μL of the compound dilution is added to a 384 well plate (Optiplate, PS, flat bottom, white, PERKIN ELMER, #6007290) with a final DMSO concentration of 6.6%. Recombinant CHO cells, overexpressing the human (1500 cells/well), mouse (1000 cells/well) or rat (500 cells/well) AOC3 enzyme are diluted in reaction buffer and added in a volume of 15 μL to the wells. After incubation for 20 minutes at 37° C., 2 μL of MAO substrate (dissolved in DMSO at 16 mM, adjusted to assay concentration in reaction buffer to a final assay concentration of 20 μM) is added and further incubated for 60 minutes at 37° C. The turnover of the substrate is determined by the addition of 20 μL of the detection-mix which was generated by the addition of reconstitution buffer with esterase (PROMEGA, #V1402) to the luciferin detection reagent (PROMEGA, #V1402). After an incubation period of 20 minutes, the luminescent signal is measured with Envision 2104 Multilabel Reader (PERKIN ELMER).

[2] = molecular target: T2, AOC1 (Homo sapiens, UniProt P19801); test: AOC1 biochemical assay (Amplex Red)
T2 construct: purchased R&D Systems 8297-AO-010
T2 sequence (P19801 20-751): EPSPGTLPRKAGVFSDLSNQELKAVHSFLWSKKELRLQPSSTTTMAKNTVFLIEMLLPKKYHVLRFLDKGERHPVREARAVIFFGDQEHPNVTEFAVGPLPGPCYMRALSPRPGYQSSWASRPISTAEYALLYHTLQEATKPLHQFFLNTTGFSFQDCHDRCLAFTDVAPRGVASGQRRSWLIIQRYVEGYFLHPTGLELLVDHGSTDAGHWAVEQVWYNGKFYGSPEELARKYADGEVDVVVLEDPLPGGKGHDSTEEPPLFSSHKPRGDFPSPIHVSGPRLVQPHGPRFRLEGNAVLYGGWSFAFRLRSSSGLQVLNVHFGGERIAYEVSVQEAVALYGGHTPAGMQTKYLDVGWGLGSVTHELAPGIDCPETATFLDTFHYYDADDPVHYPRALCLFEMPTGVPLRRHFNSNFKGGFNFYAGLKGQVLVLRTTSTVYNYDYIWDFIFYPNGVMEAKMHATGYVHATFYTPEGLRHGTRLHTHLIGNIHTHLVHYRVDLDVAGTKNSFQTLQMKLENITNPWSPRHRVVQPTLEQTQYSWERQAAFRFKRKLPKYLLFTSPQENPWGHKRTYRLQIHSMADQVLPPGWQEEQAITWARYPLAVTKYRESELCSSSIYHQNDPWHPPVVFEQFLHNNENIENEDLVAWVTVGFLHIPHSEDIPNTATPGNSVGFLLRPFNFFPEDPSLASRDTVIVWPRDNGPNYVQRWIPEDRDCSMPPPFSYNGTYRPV
Experimental: The Amplex® Red Assay (available from Thermo Fisher Scientific) provides a sensitive method for the detection of H2O2 generated during enzymatic reactions like the amine oxidation catalyzed by AOC1. The assay reagent is a colorless substrate (N-acetyl-3,7-dihydroxyphenoxazine) that reacts in a 1:1 stoichiometry with hydrogen peroxide (H2O2) to produce the fluorescent dye resorufin (7-hydroxyphenoxazin-3-one, excitation/emission maxima=570/585 nm).
An aliquot of 3 μL of the compound dilution is added to a 384 well plate (Optiplate, PS, flat bottom F, black, PERKIN ELMER, #6007270) in a DMSO concentration of 6.6%.
An AOC1 enzyme aliquot (#8297-AO-010, R&D Systems) is thawed on ice, diluted in reaction buffer and added in a volume of 7 μL to the wells to give a final assay concentration of 1 ng/well. After incubation of inhibitor and enzyme for 30 minutes at 37° C., the enzymatic reaction is started with the addition of 10 μL of Amplex® Red reaction mix (final assay concentration: 100 mM sodiumphosphate, 120 μM Amplex® Red reagent (#A22177 Molecular Probes), 1.5 U/mL Horseradish Peroxidase (#P8375 Sigma-Aldrich), 200 μM putrescine (#P7505 Sigma-Alrdich), 0.05% Pluronic F-127 (#P3000MP Sigma-Aldrich), pH 7.4, 37° C.).
After an incubation for 30 minutes at 37° C. the turnover of the substrate is determined directly (or after the addition of an excess of an amine-oxidase inhibitor) with a fluorescence reader (Ex 540 nm/Em 590 nm) like Envision 2104 Multilabel Reader (PERKIN ELMER).

SMILES | IC50 ([1]; comparison table, read-out: IC50 AOC3) [nM] | IC50 ([2]; comparison table, read-out: IC50 AOC1) [nM] | IC50 ([1]; read-out: AOC3 IC50) [nM] | IC50 ([2]; read-out: AOC1 IC50) [nM]
CN(C)S(=O)(=O)c1ccc(OC/C(=C\F)CN)cc1 [Compound 10 of WO 2013/163675, reference compound] | 2 | 963 | – | –
CN1CCN(C2CCN(S(=O)(=O)c3ccc(OC/C(=C\F)CN)nc3)CC2)C1=O [Example 1, 1-{1-[6-((Z)-2-Aminomethyl-3-fluoro-allyloxy)-pyridine-3-sulfonyl]-piperidine-4-yl}-3-methyl-imidazolidin-2-one trifluoroacetate] | – | – | 7 | 15300
CC(C)(O)CNC(=O)[C@H]1CCN(S(=O)(=O)c2ccc(OC/C(=C\F)CN)nc2)C1 [Example 2] | – | – | 40 | 8140
CN(C)C(=O)[C@H]1CCN(S(=O)(=O)c2ccc(OC/C(=C\F)CN)nc2)C1 [Example 4] | – | – | 23 | 3420
CNC(=O)[C@@H]1[C@@H]2CN(S(=O)(=O)c3ccc(OC/C(=C\F)CN)nc3)C[C@@H]21 [Example 5] | – | – | 27 | 1220
CC(=O)N[C@H]1CCCN(S(=O)(=O)c2ccc(OC/C(=C\F)CN)nc2)C1 [Example 6] | – | – | – | 678
CNC(=O)[C@@H]1CCCN1S(=O)(=O)c1ccc(OC/C(=C\F)CN)nc1 [Example 8] | – | – | 48 | 497
CNC(=O)[C@H]1CCN(S(=O)(=O)c2ccc(OC/C(=C\F)CN)nc2)C1 [Example 11] | – | – | – | 2550
NC/C(=C/F)COc1ccc(S(=O)(=O)N2CCC[C@H]2C(N)=O)cn1 [Example 13] | – | – | 43 | 667
CNC(=O)[C@@H]1CCN(S(=O)(=O)c2ccc(OC/C(=C\F)CN)nc2)C1 [Example 14] | – | – | – | 2150
CC1(O)CN(S(=O)(=O)c2ccc(OC/C(=C\F)CN)nc2)C1 [Example 16] | – | – | 9 | 441
NC/C(=C/F)COc1ccc(S(=O)(=O)N2CCC[C@@H]2C(N)=O)cn1 [Example 18] | – | – | 50 | 1220
NC/C(=C/F)COc1ccc(S(=O)(=O)N2CC(C(N)=O)C2)cn1 [Example 20] | – | – | 6 | 1360
NC/C(=C/F)COc1ccc(S(=O)(=O)N2CC[C@H](C(=O)N3CCOCC3)C2)cn1 [Example 21] | – | – | 28 | 4090
NC/C(=C/F)COc1ccc(S(=O)(=O)N2C[C@H]3C[C@@]3(C(=O)N3CCOCC3)C2)cn1 [Example 22] | – | – | 35 | 13700
CCNC(=O)C1(C)CCN(S(=O)(=O)c2ccc(OC/C(=C\F)CN)nc2)CC1 [Example 23] | – | – | 28 | > 50000
CC(=O)N[C@@H]1CCCN(S(=O)(=O)c2ccc(OC/C(=C\F)CN)nc2)C1 [Example 24] | – | – | – | 1000
CN(C)C(=O)C1CN(S(=O)(=O)c2ccc(OC/C(=C\F)CN)nc2)C1 [Example 25] | – | – | 13 | 1320
CNC(=O)[C@H]1[C@@H]2CN(S(=O)(=O)c3ccc(OC/C(=C\F)CN)nc3)C[C@@H]21 [Example 27] | – | – | 5 | 1260
CNC(=O)[C@@]12C[C@@H]1CN(S(=O)(=O)c1ccc(OC/C(=C\F)CN)nc1)C2 [Example 29] | – | – | 8 | 1370
CCNC(=O)CC1CCN(S(=O)(=O)c2ccc(OC/C(=C\F)CN)nc2)CC1 [Example 30] | – | – | 15 | 8900
NC/C(=C/F)COc1ccc(S(=O)(=O)N2CC[C@@H](C(N)=O)C2)cn1 [Example 31] | – | – | 4 | 869
COC1CN(S(=O)(=O)c2ccc(OC/C(=C\F)CN)nc2)C1 [Example 33] | – | – | 3 | 1140

The remaining lines, values ahead:

IC50 ([1]; comparison table, read-out: IC50 AOC3) [nM] | IC50 ([2]; comparison table, read-out: IC50 AOC1) [nM] | IC50 ([1]; read-out: AOC3 IC50) [nM] | IC50 ([2]; read-out: AOC1 IC50) [nM] | SMILES
– | – | 88 | 16400 | NC/C(=C/F)COc1ccc(S(=O)(=O)N2CCC(C(=O)N3CCOCC3)CC2)cn1 [Example 3]
– | – | 4 | 1560 | NC/C(=C/F)COc1ccc(S(=O)(=O)N2CCC(C(N)=O)CC2)cn1 [Example 7]
– | – | 15 | 4550 | CC(=O)N1CC(C2CCN(S(=O)(=O)c3ccc(OC/C(=C\F)CN)nc3)CC2)C1 [Example 9]
– | – | 22 | 3180 | NC/C(=C/F)COc1ccc(S(=O)(=O)N2CCC(C(=O)N3CCC3)CC2)cn1 [Example 10]
– | – | 15 | 3180 | CC(=O)NC1CCN(S(=O)(=O)c2ccc(OC/C(=C\F)CN)nc2)C1 (stereo not drawn) [Example 12]
– | – | 9 | 4640 | CCNC(=O)C1CCN(S(=O)(=O)c2ccc(OC/C(=C\F)CN)nc2)CC1 [Example 15]
– | – | 16 | 6250 | CN(C)C(=O)C1CCN(S(=O)(=O)c2ccc(OC/C(=C\F)CN)nc2)CC1 [Example 17]
– | – | 9 | 12500 | CN(C)C(=O)CC1CCN(S(=O)(=O)c2ccc(OC/C(=C\F)CN)nc2)CC1 [Example 19]
– | – | 9 | 911 | NC/C(=C/F)COc1ccc(S(=O)(=O)N2CC(C3CCN(C(=O)C4CC4)CC3)C2)cn1 [Example 26]
– | – | 13 | 3740 | CC(=O)NCC1CCN(S(=O)(=O)c2ccc(OC/C(=C\F)CN)nc2)CC1 [Example 28]
– | – | 4 | 5450 | COC(=O)CC1CCN(S(=O)(=O)c2ccc(OC/C(=C\F)CN)nc2)CC1 [Example 32]
– | – | 4 | 2400 | COC(=O)C1CCN(S(=O)(=O)c2ccc(OC/C(=C\F)CN)nc2)CC1 [Example 34]

Reference: patent US12213970B2, “Pyridinyl sulfonamide derivatives, pharmaceutical compositions and uses thereof” (Boehringer Ingelheim International GmbH, priority 2018, dated 2025)
